From patent publication US7943619B2, “Isoxazolo-pyridazine derivatives” (priority 2007, dated 2011) come the findings set out here.

pKi: −log10 of the molar value. Like-named read-outs stand apart in the source and are kept apart here.

For this assay, the target named is human GABA A receptor α5β3γ2 (α5 subunit) (Homo sapiens, UniProt P18507+P31644). Kind of assay: biochemical. Format: binding. As to the method:
The affinity of compounds at GABA A receptor subtypes was measured by competition for [3H]flumazenil (85 Ci/mmol; Roche) binding to HEK293 cells expressing rat (stably transfected) or human (transiently transfected) receptors of composition α1β3γ2, α2β3γ2, α3β3γ2 and α5β3γ2.
Cell pellets were suspended in Krebs-tris buffer (4.8 mM KCl, 1.2 mM CaCl2, 1.2 mM MgCl2, 120 mM NaCl, 15 mM Tris; pH 7.5; binding assay buffer), homogenized by polytron for ca. 20 sec on ice and centrifuged for 60 min at 4° C. (50000 g; Sorvall, rotor: SM24=20000 rpm). The cell pellets were resuspended in Krebs-tris buffer and homogenized by polytron for ca. 15 sec on ice. Protein was measured (Bradford method, Bio-Rad) and aliquots of 1 mL were prepared and stored at −80° C.
Assays were incubated to equilibrium for 1 hour at 4° C. and harvested onto GF/C uni-filters (Packard) by filtration using a Packard harvester and washing with ice-cold wash buffer (50 mM Tris; pH 7.5). After drying, filter-retained radioactivity was detected by liquid scintillation counting. Ki values were calculated using Excel-Fit (Microsoft) and are the means of two determinations.

Where [1] appears, read: competition for [3H]flumazenil binding, HEK293 cells transiently expressing human receptors, means of two determinations, read-out: hKi.

human GABA A receptor α5β3γ2 (α5 subunit), sequence (P31644 32-462): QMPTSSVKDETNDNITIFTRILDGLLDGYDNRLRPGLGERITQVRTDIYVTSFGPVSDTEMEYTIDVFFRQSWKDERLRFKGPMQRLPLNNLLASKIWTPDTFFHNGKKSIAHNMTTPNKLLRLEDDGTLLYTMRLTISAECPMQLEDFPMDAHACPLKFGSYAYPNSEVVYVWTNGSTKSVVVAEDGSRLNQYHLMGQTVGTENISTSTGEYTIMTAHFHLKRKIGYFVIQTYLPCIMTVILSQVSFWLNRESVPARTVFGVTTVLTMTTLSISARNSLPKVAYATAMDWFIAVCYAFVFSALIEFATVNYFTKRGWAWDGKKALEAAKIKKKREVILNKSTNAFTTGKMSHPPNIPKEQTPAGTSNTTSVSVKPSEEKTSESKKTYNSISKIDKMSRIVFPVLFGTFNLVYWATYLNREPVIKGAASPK
human GABA A receptor α5β3γ2 (α5 subunit), sequence (P28472 26-473 partner): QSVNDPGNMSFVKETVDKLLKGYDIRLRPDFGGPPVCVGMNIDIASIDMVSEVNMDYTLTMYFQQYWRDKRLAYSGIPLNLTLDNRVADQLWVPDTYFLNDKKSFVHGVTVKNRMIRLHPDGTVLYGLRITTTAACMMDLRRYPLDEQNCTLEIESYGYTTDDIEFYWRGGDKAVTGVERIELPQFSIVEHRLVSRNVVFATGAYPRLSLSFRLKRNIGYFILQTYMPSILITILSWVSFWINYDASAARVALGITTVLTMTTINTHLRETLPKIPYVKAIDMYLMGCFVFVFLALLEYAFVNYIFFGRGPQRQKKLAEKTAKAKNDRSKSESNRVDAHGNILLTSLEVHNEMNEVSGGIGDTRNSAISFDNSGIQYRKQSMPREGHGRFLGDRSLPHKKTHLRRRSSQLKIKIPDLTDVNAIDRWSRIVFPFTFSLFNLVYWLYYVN
human GABA A receptor α5β3γ2 (α5 subunit), sequence (P18507 40-475): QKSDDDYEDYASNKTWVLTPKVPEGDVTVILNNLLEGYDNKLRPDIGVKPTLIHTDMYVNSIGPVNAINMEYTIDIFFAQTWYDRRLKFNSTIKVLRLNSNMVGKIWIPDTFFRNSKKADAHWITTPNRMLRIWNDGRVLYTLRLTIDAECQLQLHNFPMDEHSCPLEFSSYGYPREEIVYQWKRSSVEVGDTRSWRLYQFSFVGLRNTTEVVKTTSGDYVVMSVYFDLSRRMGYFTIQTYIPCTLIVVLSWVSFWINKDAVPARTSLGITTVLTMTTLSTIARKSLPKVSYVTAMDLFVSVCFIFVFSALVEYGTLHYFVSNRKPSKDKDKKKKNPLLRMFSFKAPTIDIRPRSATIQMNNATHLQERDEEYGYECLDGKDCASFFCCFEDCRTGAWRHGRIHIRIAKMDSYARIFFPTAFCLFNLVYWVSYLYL

For `Cc1onc(-c2ccc(F)cc2)c1COc1ccc(C(=O)NC2CC2)nn1` [Example 62, 6-[3-(4-Fluoro-phenyl)-5-methyl-isoxazol-4-ylmethoxy]-pyridazine-3-carboxylic acid cyclopropylamide], the pKi under setting [1] is 8.77.

With `CCOC(=O)c1nnc(OCc2c(-c3ccccc3)noc2C)cc1C` [Example 42, 4-Methyl-6-(5-methyl-3-phenyl-isoxazol-4-ylmethoxy)-pyridazine-3-carboxylic acid ethyl ester], the pKi under setting [1] was 8.72.

Regarding `Cc1onc(-c2ccccc2)c1COc1ccc(Cl)nn1` [Example 1, 3-Chloro-6-(5-methyl-3-phenyl-isoxazol-4-ylmethoxy)-pyridazine], the pKi under setting [1] was 8.02.

As for `Cc1onc(-c2ccccc2)c1COc1ccc(N2CCCC2=O)nn1` [Example 27, 1-[6-(5-Methyl-3-phenyl-isoxazol-4-ylmethoxy)-pyridazin-3-yl]-pyrrolidin-2-one], the pKi under setting [1] was 8.40.

Consider `CCOC(=O)c1ccc(OCc2c(-c3ccc(F)cc3)noc2C)nn1` [Example 58, 6-[3-(4-Fluoro-phenyl)-5-methyl-isoxazol-4-ylmethoxy]-pyridazine-3-carboxylic acid ethyl ester], for which, under setting [1], the pKi is 8.48.

Take `Cc1onc(-c2ccccn2)c1COc1ccc(C(=O)N2CCSCC2)nn1` [Example 104, [6-(5-Methyl-3-pyridin-2-yl-isoxazol-4-ylmethoxy)-pyridazin-3-yl]-thiomorpholin-4-yl-methanone]: under setting [1], the pKi was 7.56.

As for `Cc1cc(OCc2c(-c3ccccc3)noc2C)nnc1C(=O)NC1CCOCC1` [Example 44, 4-Methyl-6-(5-methyl-3-phenyl-isoxazol-4-ylmethoxy)-pyridazine-3-carboxylic acid (tetrahydro-pyran-4-yl)-amide], the pKi under setting [1] is 8.47.

On to `CCOC(=O)c1ccc(OCc2c(-c3ccccn3)noc2C)nn1` [Example 93, 6-(5-Methyl-3-pyridin-2-yl-isoxazol-4-ylmethoxy)-pyridazine-3-carboxylic acid ethyl ester], for which the pKi under setting [1] was 8.54.

In the case of `Cc1onc(-c2ccc(F)cc2)c1COc1ccc(C(=O)NCC(F)(F)F)nn1` [Example 60, 6-[3-(4-Fluoro-phenyl)-5-methyl-isoxazol-4-ylmethoxy]-pyridazine-3-carboxylic acid (2,2,2-trifluoro-ethyl)-amide], under setting [1], the pKi is 8.46.

As to `Cc1onc(-c2ccc(F)cc2)c1COc1ccc(C(=O)NCC2CC2)nn1` [Example 59, 6-[3-(4-Fluoro-phenyl)-5-methyl-isoxazol-4-ylmethoxy]-pyridazine-3-carboxylic acid cyclopropylmethyl-amide], the pKi under setting [1] is 8.34.

Take `Cc1onc(-c2cccc(F)c2)c1CNc1ccc(C(=O)NCC(F)(F)F)nn1` [Example 118, 6-{[3-(3-Fluoro-phenyl)-5-methyl-isoxazol-4-ylmethyl]-amino}-pyridazine-3-carboxylic acid (2,2,2-trifluoro-ethyl)-amide]: under setting [1], the pKi is 7.54.

As for `Cc1onc(-c2ccccc2)c1COc1ccc(NC(=O)C(C)C)nn1` [Example 20, N-[6-(5-Methyl-3-phenyl-isoxazol-4-ylmethoxy)-pyridazin-3-yl]-isobutyramide], the pKi under setting [1] is 8.10.

Take `Cc1onc(-c2ccccc2)c1COc1ccc(C(=O)NC(C)C)nn1` [Example 7, 6-(5-Methyl-3-phenyl-isoxazol-4-ylmethoxy)-pyridazine-3-carboxylic acid isopropylamide]: the pKi under setting [1] was 8.23.

Take `Cc1onc(-c2ccc(F)cn2)c1COc1ccc(C(=O)NC(C)(C)CO)nn1` [Example 112, 6-[3-(5-Fluoro-pyridin-2-yl)-5-methyl-isoxazol-4-ylmethoxy]-pyridazine-3-carboxylic acid (2-hydroxy-1,1-dimethyl-ethyl)-amide]: the pKi under setting [1] is 8.82.

With `Cc1onc(-c2cccc(F)c2)c1COc1ccc(C(=O)NC2CC2)nn1` [Example 55, 6-[3-(3-Fluoro-phenyl)-5-methyl-isoxazol-4-ylmethoxy]-pyridazine-3-carboxylic acid cyclopropylamide], the pKi under setting [1] is 8.17.

For `CCOC(=O)c1cc(C)c(OCc2c(-c3ccccc3)noc2C)nn1` [Example 40, 5-Methyl-6-(5-methyl-3-phenyl-isoxazol-4-ylmethoxy)-pyridazine-3-carboxylic acid ethyl ester], the pKi under setting [1] is 8.66.

Take `Cc1onc(-c2ccc(F)cc2)c1COc1ccc(Cl)nn1` [Example 57, 3-Chloro-6-[3-(4-fluoro-phenyl)-5-methyl-isoxazol-4-ylmethoxy]-pyridazine]: the pKi under setting [1] is 8.34.

As to `CCNC(=O)c1ccc(OCc2c(-c3ccncc3)noc2C)nn1` [Example 109, 6-(5-Methyl-3-pyridin-4-yl-isoxazol-4-ylmethoxy)-pyridazine-3-carboxylic acid ethylamide], under setting [1], the pKi was 7.85.

As for `CCOC(=O)c1ccc(OCc2c(-c3cccc(F)c3)noc2C)nn1` [Example 49, 6-[3-(3-Fluoro-phenyl)-5-methyl-isoxazol-4-ylmethoxy]-pyridazine-3-carboxylic acid ethyl ester], the pKi under setting [1] is 8.02.

Take `CCOC(=O)c1ccc(OCc2c(-c3ccc(F)cn3)noc2C)nn1` [Example 111, 6-[3-(5-Fluoro-pyridin-2-yl)-5-methyl-isoxazol-4-ylmethoxy]-pyridazine-3-carboxylic acid ethyl ester]: the pKi under setting [1] was 8.92.

Turning to `Cc1onc(-c2ccccc2)c1COc1ccc(NC(=O)C2CCOCC2)nn1` [Example 25, Tetrahydro-pyran-4-carboxylic acid [6-(5-methyl-3-phenyl-isoxazol-4-ylmethoxy)-pyridazin-3-yl]-amide], under setting [1], the pKi was 8.06.

For the molecule `CNC(=O)c1ccc(OCc2c(-c3cccc(F)c3)noc2C)nn1` [Example 50, 6-[3-(3-Fluoro-phenyl)-5-methyl-isoxazol-4-ylmethoxy]-pyridazine-3-carboxylic acid methylamide], under setting [1], the pKi is 8.39.

For the molecule `Cc1ccc(OCc2c(-c3ccccc3)noc2C)nn1` [Example 4, 3-Methyl-6-(5-methyl-3-phenyl-isoxazol-4-ylmethoxy)-pyridazine], the pKi under setting [1] is 8.21.

Take `Cc1onc(-c2ccccc2)c1COc1ccc(NC(=O)C2CC2)nn1` [Example 21, Cyclopropanecarboxylic acid [6-(5-methyl-3-phenyl-isoxazol-4-ylmethoxy)-pyridazin-3-yl]-amide]: the pKi under setting [1] is 8.28.

As for `Cc1onc(-c2ccc(F)cc2)c1COc1ccc(C(=O)NC2CCOCC2)nn1` [Example 63, 6-[3-(4-Fluoro-phenyl)-5-methyl-isoxazol-4-ylmethoxy]-pyridazine-3-carboxylic acid (tetrahydro-pyran-4-yl)-amide], the pKi under setting [1] was 8.62.

For the molecule `Cc1onc(-c2ccc(F)cn2)c1COc1ccc(Cl)nn1` [Example 110, 3-Chloro-6-[3-(5-fluoro-pyridin-2-yl)-5-methyl-isoxazol-4-ylmethoxy]-pyridazine], under setting [1], the pKi is 8.80.

Turning to `Cc1onc(-c2ccccn2)c1COc1ccc(C(=O)NCC(F)(F)F)nn1` [Example 98, 6-(5-Methyl-3-pyridin-2-yl-isoxazol-4-ylmethoxy)-pyridazine-3-carboxylic acid (2,2,2-trifluoro-ethyl)-amide], the pKi under setting [1] is 8.55.

As for `CCOC(=O)c1ccc(OCc2c(-c3ccccc3)noc2C)nn1` [Example 5, 6-(5-Methyl-3-phenyl-isoxazol-4-ylmethoxy)-pyridazine-3-carboxylic acid ethyl ester], the pKi under setting [1] is 8.26.

On to `Cc1onc(-c2ccncn2)c1COc1ccc(C(=O)NC(C)(C)CO)nn1` [Example 115, 6-(5-Methyl-3-pyrimidin-4-yl-isoxazol-4-ylmethoxy)-pyridazine-3-carboxylic acid (2-hydroxy-1,1-dimethyl-ethyl)-amide], for which the pKi under setting [1] was 7.83.

`Cc1onc(-c2ccccn2)c1COc1ccc(C(=O)N2CCOCC2)nn1` [Example 96, [6-(5-Methyl-3-pyridin-2-yl-isoxazol-4-ylmethoxy)-pyridazin-3-yl]-morpholin-4-yl-methanone]: the pKi is 7.59.

Turning to `Cc1cc(OCc2c(-c3ccccc3)noc2C)nnc1Cl` [Example 41, 3-Chloro-4-methyl-6-(5-methyl-3-phenyl-isoxazol-4-ylmethoxy)-pyridazine], the pKi under setting [1] was 8.64.

Turning to `Cc1onc(-c2ccccc2)c1COc1ccc(C(=O)NC2CC2)nn1` [Example 8, 6-(5-Methyl-3-phenyl-isoxazol-4-ylmethoxy)-pyridazine-3-carboxylic acid cyclopropylamide], the pKi under setting [1] is 8.46.

With `CCNC(=O)c1ccc(OCc2c(-c3ccccn3)noc2C)nn1` [Example 103, 6-(5-Methyl-3-pyridin-2-yl-isoxazol-4-ylmethoxy)-pyridazine-3-carboxylic acid ethylamide], the pKi under setting [1] is 8.82.

On to `Cc1onc(-c2ccccc2)c1COc1ccc(NC(=O)c2ccccc2)nn1` [Example 30, N-[6-(5-Methyl-3-phenyl-isoxazol-4-ylmethoxy)-pyridazin-3-yl]-benzamide], for which the pKi under setting [1] is 7.86.

Regarding `Cc1onc(-c2ccncc2)c1COc1ccc(C(=O)NCCO)nn1` [Example 107, 6-(5-Methyl-3-pyridin-4-yl-isoxazol-4-ylmethoxy)-pyridazine-3-carboxylic acid (2-hydroxy-ethyl)-amide], the pKi under setting [1] was 7.63.
